Laboratory results taken from publication PMC8329197, “Compounds targeting OSBPL7 increase ABCA1-dependent cholesterol efflux preserving kidney function in two models of kidney disease” (Nature Communications, 2021).
Several values for one entry are separate records, joined by “and”; a condition that tells them apart may be missing. Identical values can stand only once.

Columns and labels:
[1] = test system: Adriamycin (ADR)-induced nephropathy in Balb/c mice; experiment: Adriamycin-induced nephropathy, dose-finding pilot study: ACR and body weight time course; conditions: for ACR in pilot study: days 7-28; for Body Weight / ACR in spot urine: ADR, individual mice
[2] = test system: Adriamycin (ADR)-induced nephropathy in Balb/c mice; experiment: ADR nephropathy: blood urea nitrogen (BUN) and serum creatinine; type: in vivo, mouse; conditions: 28 days treatment
Description: Supplement 41467_2021_24890_MOESM5_ESM.xlsx, sheet "Supplementary Table 4" | column: ADR+ Cpd A; ADR+ Cpd G; ADR+ Cpd C

[3] = target: human cannabinoid 1 receptor (hCB1-R) (Homo sapiens, UniProt P21554); experiment: Potency for binding to the CB1R in vitro (Ki); conditions: human CB1 receptor binding
human cannabinoid 1 receptor (hCB1-R), sequence (P21554 whole entry): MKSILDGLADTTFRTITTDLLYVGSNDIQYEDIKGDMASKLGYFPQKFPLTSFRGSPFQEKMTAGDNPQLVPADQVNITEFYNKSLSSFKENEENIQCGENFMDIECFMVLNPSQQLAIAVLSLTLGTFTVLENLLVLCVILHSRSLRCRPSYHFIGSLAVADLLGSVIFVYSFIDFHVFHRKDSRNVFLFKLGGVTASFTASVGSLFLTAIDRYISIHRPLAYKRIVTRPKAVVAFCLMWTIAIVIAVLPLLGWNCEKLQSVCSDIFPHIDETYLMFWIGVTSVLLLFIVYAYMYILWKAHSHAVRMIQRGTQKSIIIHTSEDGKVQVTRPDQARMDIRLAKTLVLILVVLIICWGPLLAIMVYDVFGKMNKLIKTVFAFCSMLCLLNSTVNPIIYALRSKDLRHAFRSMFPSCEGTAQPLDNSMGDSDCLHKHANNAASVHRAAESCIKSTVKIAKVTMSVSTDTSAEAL

[4] = test system: human podocytes; experiment: apoAI-mediated cholesterol efflux in human podocytes; type: cell-based; conditions: for ApoA1-mediated cholesterol efflux (%) in podocytes: single experiments
Procedure: Cell lines were purchased from ATCC and subcultured for no more than passage 15, except for human podocytes, which were originally from Dr Jochen Reiser. Conditionally immortalized human podocytes were cultured under permissive conditions at 33 °C, in RPMI medium (Corning) containing 10% FBS (GIBCO), 1% penicillin/streptomycin, 0.01 mg/ml recombinant human insulin, 0.0055 mg/ml human transferrin (substantially iron-free), and 0.005 μg/ml sodium selenite (ITS, Corning). To induce differentiation, podocytes were cultured at 37 °C for 14 days in RPMI medium containing 10% FBS (GIBCO) and 1% penicillin/streptomycin. Differentiated podocytes were starved in RPMI-0.2% FBS for 18 h and then treated with 1 μM, 5 μM, and 10 μM of compounds freshly prepared in DMSO for 18 h at 37 °C as indicated.
Human podocytes differentiated for 13 days were labeled for 24 h at 37 °C in RPMI medium containing 2% FBS and [^3H]-cholesterol (1 μCi/ml, American Radiolabeled Chemicals). Cells were then washed 3 times with PBS and incubated with RPMI supplemented with 0.2% fat free-BSA (Sigma) with or without compounds for 18-h at 37 °C. The compounds were used at the following concentrations: Cpd C (1 μM), Cpd A (1 μM, 5 μM) and Cpd G (1 μM, 5 μM, 10 μM). Following the 18-h incubation, human apoAI (Calbiochem) was added to the media, (20 μg/mL final concentration) and the cells were incubated for another 18 h at 37 °C. Aliquots of medium collected before (T = 0 h) and after (T = 18 h) the addition of apoAI were centrifuged at 12,000 × g for 5 min and the radioactivity in the supernatant was counted by liquid scintillation. Cells were then washed with PBS, lysed 0.1% SDS, 0.1M NaOH and the radioactivity in the lysates was quantified by liquid scintillation. apoAI-mediated cholesterol efflux, expressed as %, was calculated as the amount of label released to the medium after adding apoAI (the difference in radioactivity in the medium before and after adding ApoA1) divided by the amount of total label in each well (radioactivity released to the media plus radioactivity in the lysed cells).

[5] = test system: Adriamycin (ADR)-induced nephropathy in Balb/c mice; experiment: ADR nephropathy: serum cholesterol and triglycerides; type: in vivo, mouse
[6] = test system: Adriamycin (ADR)-induced nephropathy in Balb/c mice; experiment: ADR nephropathy: liver total cholesterol, cholesterol esters, triglycerides; type: in vivo, mouse
[7] = 30 mg/Kg/day, 7 days after inj, 30 mg/kg/day
[8] = 30 mg/Kg/day, 14 days after inj, 30 mg/kg/day
[9] = 100 mg/Kg/day, 7 days after inj, 100 mg/kg/day
[10] = 100 mg/Kg/day, 14 days after inj, 100 mg/kg/day
[11] = 100 mg/Kg/day, 21 days after inj, 100 mg/kg/day
[12] = 100 mg/Kg/day, 28 days after inj, 100 mg/kg/day
[13] = ADR-injected mice, 28-day treatment, 25th quartile
[14] = ADR-injected mice, 28-day treatment, 75th quartile
[15] = ADR-injected mice, 28-day treatment, group maximum
[16] = ADR-injected mice, 28-day treatment, group median
[17] = ADR-injected mice, 28-day treatment, group minimum
[18] = ADR-injected mice, 28-day treatment, individual mouse values

**Q.** What does the source list for `O=C(N[C@@H]1CCCC[C@H]1O)c1ccc(OCC(F)(F)F)c(-c2ccc(Cl)c(Cl)c2)n1` [Cpd A]?
**A.** ACR in pilot study ([1]; 30 mg/kg/day oral): significantly improved; ACR in pilot study ([1]; 100 mg/kg/day oral): significantly improved; Body Weight ([1]; 30 mg/Kg/day, 0 days after inj, 30 mg/kg/day): 19 grams (3×) and 18 grams and 20 grams; ACR in spot urine [1, 7]: 0.046 mg Albumin/ mg Creatinine in urine and 0.018 mg Albumin/ mg Creatinine in urine and 0.038 mg Albumin/ mg Creatinine in urine and 0.025 mg Albumin/ mg Creatinine in urine and 0.07 mg Albumin/ mg Creatinine in urine; Body Weight [1, 7]: 18 grams and 17 grams (3×) and 19 grams; ACR in spot urine [1, 8]: 18.583 mg Albumin/ mg Creatinine in urine and 0.363 mg Albumin/ mg Creatinine in urine and 64.328 mg Albumin/ mg Creatinine in urine and 0.368 mg Albumin/ mg Creatinine in urine and 1.926 mg Albumin/ mg Creatinine in urine; Body Weight [1, 8]: 18 grams (3×) and 17 grams (2×); Body Weight ([1]; 30 mg/Kg/day, 21 days after inj): 18 grams; ACR in spot urine ([1]; 30 mg/Kg/day, 21 days after inj, 30 mg/kg/day): 1.551 mg Albumin/ mg Creatinine in urine and 71.309 mg Albumin/ mg Creatinine in urine and 0.609 mg Albumin/ mg Creatinine in urine and 0.814 mg Albumin/ mg Creatinine in urine; Body Weight ([1]; 30 mg/Kg/day, 28 days after inj): 19 grams; ACR in spot urine ([1]; 30 mg/Kg/day, 28 days after inj, 30 mg/kg/day): 2.363 mg Albumin/ mg Creatinine in urine and 0.33 mg Albumin/ mg Creatinine in urine and 3.08 mg Albumin/ mg Creatinine in urine and 0.093 mg Albumin/ mg Creatinine in urine and 0.242 mg Albumin/ mg Creatinine in urine; Body Weight ([1]; 100 mg/Kg/day, 0 days after inj, 100 mg/kg/day): 20 grams (2×) and 18 grams and 19 grams (2×); ACR in spot urine [1, 9]: 0.022 mg Albumin/ mg Creatinine in urine and 0.015 mg Albumin/ mg Creatinine in urine and 0.072 mg Albumin/ mg Creatinine in urine and 0.065 mg Albumin/ mg Creatinine in urine; Body Weight [1, 9]: 18 grams and 17 grams (4×); ACR in spot urine [1, 10]: 5.851 mg Albumin/ mg Creatinine in urine and 174.428 mg Albumin/ mg Creatinine in urine and 9.218 mg Albumin/ mg Creatinine in urine and 96.72 mg Albumin/ mg Creatinine in urine; Body Weight [1, 10]: 17 grams (3×) and 18 grams and 19 grams; ACR in spot urine [1, 11]: 3.536 mg Albumin/ mg Creatinine in urine and 136.245 mg Albumin/ mg Creatinine in urine and 73.737 mg Albumin/ mg Creatinine in urine and 208.282 mg Albumin/ mg Creatinine in urine; Body Weight [1, 11]: 15 grams and 18 grams (3×); ACR in spot urine [1, 12]: 0.638 mg Albumin/ mg Creatinine in urine and 26.929 mg Albumin/ mg Creatinine in urine and 1.99 mg Albumin/ mg Creatinine in urine and 18.858 mg Albumin/ mg Creatinine in urine; Body Weight [1, 12]: 15 grams and 19 grams and 18 grams and 14 grams; BUN, QR(25) ([2]; 25th quartile): 16 mg/dL; sCre, QR(25) ([2]; 25th quartile): 0.11 mg/dL; BUN, QR(75) ([2]; 75th quartile): 17.75 mg/dL; sCre, QR(75) ([2]; 75th quartile): 0.135 mg/dL; BUN, Max ([2]; group maximum): 23 mg/dL; sCre, Max ([2]; group maximum): 0.17 mg/dL; BUN, Median ([2]; group median): 17 mg/dL; sCre, Median ([2]; group median): 0.115 mg/dL; BUN, Min ([2]; group minimum): 13 mg/dL; sCre, Min ([2]; group minimum): 0.08 mg/dL; Blood Urea nitrogen (BUN) ([2]; individual mouse values): 17 mg/dL and 23 mg/dL and 18 mg/dL and 19 mg/dL and 16 mg/dL and 15 mg/dL and 13 mg/dL; Serum Creatinine sCre ([2]; individual mouse values): 0.12 mg/dL and 0.08 mg/dL and 0.17 mg/dL and 0.1 mg/dL and 0.15 mg/dL and 0.11 mg/dL and 0.14 mg/dL; Ki [3]: > 10 µM; ApoA1-mediated cholesterol efflux (%) in podocytes ([4]; 1 uM): 4.2% and 0.9% and 3.2% and 3.5% and 3.7%; ApoA1-mediated cholesterol efflux (%) in podocytes ([4]; 5 uM): 3.3% and 4.4% and 1.5% and 3.7% and 2.4% and 6.4% and 7.6% and 3.5%; Increase in apoAI-mediated cholesterol efflux vs. untreated cells ([4]; Cpd G 10 µM, Cpd A 5 µM, Cpd C 1 µM): ~2 fold; SERUM CHOLESTEROL ([5]; ADR model, individual animals): 96 and 91 and 87 and 95 and 159 and 122 and 71 and 90 and 81 and 77; SERUM TRIGLYCERIDES ([5]; ADR model, individual animals): 108 and 116 and 127 and 60 and 44 and 80 and 53 and 54; Serum cholesterol, QR(25) [5, 13]: 87 mg/dL; Serum triglycerides, QR(25) [5, 13]: 55.5 mg/dL; Serum cholesterol, QR(75) [5, 14]: 96 mg/dL; Serum triglycerides, QR(75) [5, 14]: 116 mg/dL; Serum cholesterol, Max [5, 15]: 159 mg/dL; Serum triglycerides, Max [5, 15]: 127 mg/dL; Serum cholesterol, Median [5, 16]: 91 mg/dL; Serum triglycerides, median [5, 16]: 94 mg/dL; Serum cholesterol, Min [5, 17]: 71 mg/dL; Serum triglycerides, Min [5, 17]: 44 mg/dL; SERUM CHOLESTEROL [5, 18]: 91 mg/dL and 87 mg/dL and 95 mg/dL and 159 mg/dL and 122 mg/dL and 71 mg/dL and 90 mg/dL and 77 mg/dL and 96 mg/dL; SERUM TRIGLYCERIDES [5, 18]: 44 mg/dL and 80 mg/dL and 53 mg/dL and 54 mg/dL and 108 mg/dL and 116 mg/dL and 127 mg/dL and 60 mg/dL; Animals with sporadically high cholesterol levels (>122 mg/dL) ([5]; plasma, 28 days of treatment, ADR-challenged): 10%; Cholesterol (mg/dL), Median(IQR) ([5]; serum, after ADR challenge): 91(80-159) mg/dL; Cholesterol (mg/dL), Range ([5]; serum, after ADR challenge): 71 to 159 mg/dL; Cholesterol, % of the group> 112 mg/dL ([5]; serum, after ADR challenge): 10%; Triglycerides (mg/dL), Median(IQR) ([5]; serum, after ADR challenge): 94(54-116) mg/dL; Triglycerides (mg/dL), Range ([5]; serum, after ADR challenge): 44 to 127 mg/dL; LIVER CHOLESTEROL ESTERS ([6]; ADR model, individual animals): 1.39 nmol CE/ mg protein and 2.25 nmol CE/ mg protein and 2.79 nmol CE/ mg protein and 8 nmol CE/ mg protein and 3.82 nmol CE/ mg protein and 8.05 nmol CE/ mg protein; LIVER TOTAL CHOLESTEROL ([6]; ADR model, individual animals): 120 nmol Cholesterol/ mg protein and 119 nmol Cholesterol/ mg protein and 149 nmol Cholesterol/ mg protein and 163 nmol Cholesterol/ mg protein and 112 nmol Cholesterol/ mg protein and 195 nmol Cholesterol/ mg protein; LIVER TRIGLICERIDES ([6]; ADR model, individual animals): 75 nmol Triglycerides/ mg protein and 54.7 nmol Triglycerides/ mg protein and 58 nmol Triglycerides/ mg protein and 69 nmol Triglycerides/ mg protein and 38 nmol Triglycerides/ mg protein and 54.5 nmol Triglycerides/ mg protein; Hepatic triglyceride content vs. vehicle-treated controls ([6]; ADR-challenged, 28 days): increased hepatic triglyceride content
